Assay results: patent US9201014B2, “Development of photostable near-IR cyanine dyes for in vivo imaging” (National University of Singapore, priority 2010, dated 2015)

Key:
[1] = Absorbance and fluorescence maximum wavelengths and quantum yields of the CyNA library; format: physicochemical; conditions: for λabs, absorbance maximum wavelength / λem, fluorescence maximum wavelength: CyNA library; for φ, quantum yield: in DMSO, Cardiogreen as standard
Experimental: Since the k values of the different CyNA compounds indicated some dependency on the chemical structure of the amine, the CyNA scaffold was derivatized with a broad range of primary amines (FIGS. 4A-4C). The fluorescence properties of the 80-member CyNA library were measured. The absorption maximum wavelengths ranged from 802 nm to 806 nm, emission maximum wavelengths ranged from 817 nm to 823 nm, and the average quantum yield was approximately 0.10 (Table 2).
All the chemicals (building block amines plus others) and solvents were purchased from Sigma Aldrich, Alfa Aesar, Fluka, MERCK or Acros, and used without further purification. ^1H-NMR and ^13C-NMR spectra were recorded on Bruker Avance 300 NMR and 500 NMR spectrometers, and chemical shifts are expressed in parts per million (ppm). High-resolution mass spectrometry (HRMS) data was recorded on a Micromass VG 7035. Photobleaching experiments were performed using a UVP Blak-Ray® B-100AP high intensity UV lamp (100 W, 365 nm) Spectroscopic and quantum yield data were measured on a SpectraMax M2 spectrophotometer (Molecular Devices), and the data analysis was performed using GraphPrism 5.0. Photobleaching measurements were performed using an Eclipse Ti-U Nikon microscope (filter cube: 750/800) attached to Ti:sappire oscillator that operated in continuous wave mode, and the data was processed using the software NIS-Elements 3.10. In vivo images were taken in an IVIS Spectrum imaging system (Caliper Life Sciences).

[2] = Primary screening of photostability of the CyNA library (time-course fluorescence, 8 h); format: physicochemical; set-up: F/Fo, fluorescent intensity at 8 hours vs 0 hours: unit: %; conditions: 10 μM in HEPES 100 mM pH 7.4, 2% DMSO
Experimental: As a primary evaluation of photo stability, the decrease in fluorescence intensity of the 80 CyNA compounds was measured (see Table 2). The average decrease in fluorescence intensity after 8 hours of irradiation by a xenon lamp was approximately 18%. A subset of the most photostable compounds (i.e., F/Fo reported in Table 2 was greater than or equal to 95) was examined under stronger irradiation in various buffers.
10-μM CyNA solutions in 100 mM HEPES buffer (pH 7.4) containing 2% DMSO were placed in a 96-well black plate, and fluorescence intensity measurements were recorded every 10 minutes for a total period of 8 hours (excitation-emission: 790-820 nm). A subset of fourteen compounds selected according to their F8h/Fo quotients, quantum yields and maximum relative fluorescence units (RFU) values was further evaluated in a secondary screening

SMILES	λabs, absorbance maximum wavelength [1]	λem, fluorescence maximum wavelength [1]	φ, quantum yield [1]	F/Fo, fluorescent intensity at 8 hours vs 0 hours [2]	max RFU, maximum relative fluorescence units [2]
CCCN1/C(=C/C=C2\CCCC(/C=C/C3=[N+](CCC)c4ccccc4C3(C)C)=C2N(C(C)=O)C2CCN(Cc3ccccc3)CC2)C(C)(C)c2ccccc21 [CyNA-107]	803 nm	820 nm	0.07	50	275.3
CCCN1/C(=C/C=C2\CCCC(/C=C/C3=[N+](CCC)c4ccccc4C3(C)C)=C2N(Cc2ccccc2OC)C(C)=O)C(C)(C)c2ccccc21 [CyNA-388]	803 nm	819 nm	0.14	97	1398.5
CCCN1/C(=C/C=C2\CCCC(/C=C/C3=[N+](CCC)c4ccccc4C3(C)C)=C2N(Cc2cc(OC)cc(OC)c2)C(C)=O)C(C)(C)c2ccccc21 [CyNA-262]	803 nm	822 nm	0.10	81	816.5
CCCN1/C(=C/C=C2\CCCC(/C=C/C3=[N+](CCC)c4ccccc4C3(C)C)=C2N(Cc2c(F)cccc2F)C(C)=O)C(C)(C)c2ccccc21 [CyNA-80]	804 nm	817 nm	0.08	93	734.9
CCCN1/C(=C/C=C2\CCCC(/C=C/C3=[N+](CCC)c4ccccc4C3(C)C)=C2N(Cc2ccc(C)cc2)C(C)=O)C(C)(C)c2ccccc21 [CyNA-396]	804 nm	820 nm	0.09	96	736.1
CCCN1/C(=C/C=C2\CCCC(/C=C/C3=[N+](CCC)c4ccccc4C3(C)C)=C2N(Cc2ccccc2OCC)C(C)=O)C(C)(C)c2ccccc21 [CyNA-103]	804 nm	821 nm	0.14	92	1106.6
CCCN1/C(=C/C=C2\CCCC(/C=C/C3=[N+](CCC)c4ccccc4C3(C)C)=C2N(Cc2cccc(F)c2F)C(C)=O)C(C)(C)c2ccccc21 [CyNA-351]	805 nm	818 nm	0.10	52	555.4
CCCCCCCCCCN(C(C)=O)C1=C(/C=C/C2=[N+](CCC)c3ccccc3C2(C)C)CCC/C1=C\C=C1\N(CCC)c2ccccc2C1(C)C [CyNA-407]	805 nm	820 nm	0.08		22.5
CCCN(C(C)=O)C1=C(/C=C/C2=[N+](CCC)c3ccccc3C2(C)C)CCC/C1=C\C=C1\N(CCC)c2ccccc2C1(C)C [CyNA-95]	806 nm	818 nm	0.09	91	1027.9
CCCN1/C(=C/C=C2\CCCC(/C=C/C3=[N+](CCC)c4ccccc4C3(C)C)=C2N(Cc2ccc(F)cc2)C(C)=O)C(C)(C)c2ccccc21 [CyNA-218]	802 nm	823 nm	0.08	85	549.9
CCCN1/C(=C/C=C2\CCCC(/C=C/C3=[N+](CCC)c4ccccc4C3(C)C)=C2N(Cc2cccc(Br)c2)C(C)=O)C(C)(C)c2ccccc21 [CyNA-341]	805 nm	822 nm	0.10	100	259.2
CCCN1/C(=C/C=C2\CCCC(/C=C/C3=[N+](CCC)c4ccccc4C3(C)C)=C2N(CCc2ccccc2-c2ccccc2)C(C)=O)C(C)(C)c2ccccc21 [CyNA-599]	805 nm	819 nm	0.07		105.9
CCCN1/C(=C/C=C2\CCCC(/C=C/C3=[N+](CCC)c4ccccc4C3(C)C)=C2N(Cc2ccc3c(c2)OCO3)C(C)=O)C(C)(C)c2ccccc21 [CyNA-49]	804 nm	818 nm	0.10	95	851.3
CCCN1/C(=C/C=C2\CCCC(/C=C/C3=[N+](CCC)c4ccccc4C3(C)C)=C2N(CCc2cccc(F)c2)C(C)=O)C(C)(C)c2ccccc21 [CyNA-405]	806 nm	820 nm	0.06	83	138.5
CCCN1/C(=C/C=C2\CCCC(/C=C/C3=[N+](CCC)c4ccccc4C3(C)C)=C2N(Cc2cccc3ccccc23)C(C)=O)C(C)(C)c2ccccc21 [CyNA-542]	805 nm	821 nm	0.08	74	442.7
CCCN1/C(=C/C=C2\CCCC(/C=C/C3=[N+](CCC)c4ccccc4C3(C)C)=C2N(C(C)=O)C2CCCC2)C(C)(C)c2ccccc21 [CyNA-180]	805 nm	821 nm	0.14	91	991.3
CCCN1/C(=C/C=C2\CCCC(/C=C/C3=[N+](CCC)c4ccccc4C3(C)C)=C2N(Cc2ccc(OC)cc2OC)C(C)=O)C(C)(C)c2ccccc21 [CyNA-358]	805 nm	819 nm	0.14	100	487.4
CCCN1/C(=C/C=C2\CCCC(/C=C/C3=[N+](CCC)c4ccccc4C3(C)C)=C2N(Cc2cccc(OC)c2)C(C)=O)C(C)(C)c2ccccc21 [CyNA-387]	804 nm	820 nm	0.07	75	739.9
CCCN1/C(=C/C=C2\CCCC(/C=C/C3=[N+](CCC)c4ccccc4C3(C)C)=C2N(Cc2cccc(OC)c2OC)C(C)=O)C(C)(C)c2ccccc21 [CyNA-124]	803 nm	820 nm	0.15	100	1334.2
CCCN1/C(=C/C=C2\CCCC(/C=C/C3=[N+](CCC)c4ccccc4C3(C)C)=C2N(Cc2cccc(C)c2)C(C)=O)C(C)(C)c2ccccc21 [CyNA-398]	804 nm	819 nm	0.07	99	540.2
CCCN1/C(=C/C=C2\CCCC(/C=C/C3=[N+](CCC)c4ccccc4C3(C)C)=C2N(Cc2ccccc2F)C(C)=O)C(C)(C)c2ccccc21 [CyNA-375]	804 nm	821 nm	0.07	98	533.7
CCCN1/C(=C/C=C2\CCCC(/C=C/C3=[N+](CCC)c4ccccc4C3(C)C)=C2N(CCc2cccc(OC)c2)C(C)=O)C(C)(C)c2ccccc21 [CyNA-102]	805 nm	822 nm	0.14	63	998.9
CCCN1/C(=C/C=C2\CCCC(/C=C/C3=[N+](CCC)c4ccccc4C3(C)C)=C2N(C(C)=O)C2CCCCCCC2)C(C)(C)c2ccccc21 [CyNA-219]	804 nm	822 nm	0.14	65	902.7
